Assay results from PubChem BioAssay (NCI).
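Cultured in 96-well plates, cells were exposed to test compound for 48 hours across five concentrations. Abbreviation: GI50, concentration required for 50% inhibition of growth. TGI: concentration producing complete growth inhibition.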

How the values were obtained:
Experiment in all cases: NCI-60 cell line screen, 48 h
EKVX NSCLC = tested on: EKVX NSCLC
HT29 colon = tested on: HT29 colon
K-562 leukemia = tested on: K-562 leukemia
OVCAR-5 ovarian = tested on: OVCAR-5 ovarian
RPMI-8226 leukemia = tested on: RPMI-8226 leukemia
SW-620 colon = tested on: SW-620 colon
T-47D breast = tested on: T-47D breast
UACC-257 melanoma = tested on: UACC-257 melanoma
DMS 114 small cell lung = tested on: DMS 114 small cell lung
DMS 273 small cell lung = tested on: DMS 273 small cell lung

SMILES	TGI (EKVX NSCLC) [µM]	TGI (HT29 colon) [µM]	TGI (K-562 leukemia) [µM]	TGI (OVCAR-5 ovarian) [µM]	TGI (RPMI-8226 leukemia) [µM]	TGI (SW-620 colon) [µM]	TGI (T-47D breast) [µM]	TGI (UACC-257 melanoma) [µM]	GI50 (EKVX NSCLC) [µM]	GI50 (HT29 colon) [µM]	GI50 (K-562 leukemia) [µM]	GI50 (OVCAR-5 ovarian) [µM]	GI50 (RPMI-8226 leukemia) [µM]	GI50 (SW-620 colon) [µM]	GI50 (T-47D breast) [µM]	GI50 (UACC-257 melanoma) [µM]	TGI (DMS 114 small cell lung) [µM]	TGI (DMS 273 small cell lung) [µM]
O=C(O)c1c(Br)c(Br)c(Br)c(Br)c1C1c2ccc(O)cc2Oc2cc(O)ccc21	> 100	> 100	> 100	> 100	> 100	> 100	> 100	> 100										
Cc1[nH]c2cc(F)ccc2c1-c1nc2c3cccnc3c3ncccc3c2[nH]1	2.69	1.66	4.77	2.65	2.91	1.84	1.28	0.833	0.32	0.436	0.324	0.573	0.771	0.282	0.341	0.228		
N#CC1=C(O)NC(O)=C(C#N)C1c1ccc(C2C(C#N)=C(O)NC(O)=C2C#N)cc1	> 100	> 100	> 100		> 100	> 100		> 100									> 100	> 100
NC(=O)NC1C(C(=O)O)N(Cc2ccccc2)C(=O)N1Cc1ccccc1 (stereo not drawn)	> 100	> 100	> 100	> 100	> 100	> 100		> 100									> 100	
Cc1ccc(C2NC(=O)c3ccccc3N2)c(C)c1 (stereo not drawn)	> 100	34.9	8.37	> 86.5	12	> 100	> 100	> 100										
Cn1cc(C(=O)c2ccccc2)cc(C(=O)c2ccccc2)c1=O	> 100	> 100	> 100	> 100	> 100	> 100		> 100									> 100	> 100
COCCOCCOCCOc1cccc2c1C(=O)c1cccc(OCCOCCOCCOC)c1C2=O	> 100	> 100	> 100		> 100	> 100		> 100									> 100	> 100
CCCCCCCCCCCc1c(O)c(=O)c2c(oc3c(=O)c(CCCCCCCCCCC)c(O)c(=O)c3n2-c2ccc(N(C)C)cc2)c1=O	67.7	46.8	> 100	50.9	> 100	68.6		40.2									57.7	56.3
O=c1c2cc3c(cc2c2cccc4c2n1CCC4)OCO3	99.5	> 100	> 100	> 100	> 100	> 100		> 100										> 100
O=C1CC/C(=C/COc2cc(=O)oc3ccccc23)O1	40.1	19.6	95.2	22.2	8.07	18.2	19.8	27.7	17.9	4.38	19.3	3.68	2.02	4.37	2.27	12.9		
COc1cc2oc3c(c(=O)c2c(O)c1/C=C/C(C)C)C(C=C(C)C)Oc1cc(O)ccc1-3 (stereo not drawn)	30.3	28.8	24.2	31.1	33.9	32.3	31	32.6										
C[C@@H](CO)NC(=O)c1cc(-c2ccc(Cl)cc2)nn(-c2cnn(C)c2)c1=O	> 100	76.7	95	> 100	> 100	> 100	> 100	> 100	26	19.4	26.3	28.7	20.5	22.9	25.9	30.6		
COc1cnc2c(c1)C(=O)c1c-2n(CCCN2CCC(O)CC2)c(=O)c2cc(Cl)ccc12	5.85	2.43	6.34	3.43	5.19	2.62	4.69	26.2	1.84	0.59	1.43	1.63	0.947	0.253	0.656	12.2		
Cc1ccc(-n2nnnc2-c2cnc(N3CCOCC3)nc2-c2cccc(C(F)(F)F)c2)cc1	> 50	> 18.4	> 22.6	> 43.1	3.77	> 25.1	> 15.6	> 30.5	3.93	1.53	1.96	2.6	1.28	1.93	2.31	4.88		
COC1CC(N)C(O)C(C)O1 (stereo not drawn)	> 100	> 100	> 100	> 100	> 100	> 100	> 100	> 100										
CC(=O)c1ccc(NC(=O)COC(=O)c2cccc3c(=O)c4ccccc4[nH]c23)cc1	> 100	> 100	> 100			> 100		> 100									> 100	
CCSC[C@@H]1C[C@](O)(c2ccc(F)cc2)[C@@H](c2ccc(F)cc2)O1	31.7	27.7	31.5	37.9	36.1	31.4	35.8	32.7	15.3	14.1	16	20.2	14.9	16.7	15	16.1		
CN(C)c1ccc(/C=N/S(=O)(=O)c2ccc(-n3c(-c4ccccc4)nc4c(Br)cc(Br)cc4c3=O)cc2)cc1	91.6	> 100	> 86.5	> 100	> 96.4	> 100	88	> 100	27.6	42.5	31.3	> 69.5	4.27	46.2	24.5	44.6		
CC1(C)O[C@@H]2C[C@H]3[C@@H]4C[C@H](F)C5=CC(=O)C=C[C@]5(C)[C@@]4(F)[C@@H](O)C[C@]3(C)[C@]2(C(=O)CO)O1	> 100	> 100	> 100	> 100	> 100	> 100	> 100	> 100										
